Reference: PubChem BioAssay AID1918946 (Molecular Pharmacology Branch, DTP, NCI, 2023)
Where “and” joins values, the source holds several entries; their conditions need not be identical. Equal entries are not always repeated.

Test system: 885512-296-R-J2-PDC complex spheroid viability
Experiment: Anticancer human tumor 885512-296-R-J2-PDC patient-derived breast carcinoma cell line growth inhibition
Settings: for viability, T/C: stronger effect = lower value; active = viability on the fitted dose curve at most 10% of control; inactive = the rest
Summary of the method: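 Complex spheroids of tumor cells with HUVEC and human MSCs, exposed to iadademstat combined with other agents. Each agent tested in half-log steps from near clinical Cmax (else 10 microM top), DMSO ≤0.25%.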

[1] = curve of first compound, second compound 0.1 µM
[2] = curve of first compound, second compound 0.316 µM
[3] = curve of first compound, second compound 1 µM
[4] = curve of first compound, second compound 3.16 µM
[5] = curve of first compound, second compound 10 µM
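Also: spheroids exposed to agents for 7 days before viability read.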

CCN(c1cc(-c2ccc(CN3CCOCC3)cc2)cc(C(=O)NCc2c(C)cc(C)[nH]c2=O)c1C)C1CCOCC1 + NC1CC1c1ccc(-c2cccc(O)c2)cc1
inactive: viability, T/C (second compound 0.1 µM, first compound 0.00949 µM) 106% | viability, T/C (second compound 0.1 µM, first compound 0.03 µM) 108% | viability, T/C (second compound 0.1 µM, first compound 0.0949 µM) 67.2% | viability, T/C (second compound 0.1 µM, first compound 0.3 µM) 26.9% | viability, T/C (second compound 0.1 µM, first compound 0.949 µM) 19.2% | viability, T/C (second compound 0.1 µM, first compound 3 µM) 7.41% | viability, T/C (second compound 0.316 µM, first compound 0.00949 µM) 120% | viability, T/C (second compound 0.316 µM, first compound 0.03 µM) 103% | viability, T/C (second compound 0.316 µM, first compound 0.0949 µM) 65.8% | viability, T/C (second compound 0.316 µM, first compound 0.3 µM) 31.9% | viability, T/C (second compound 0.316 µM, first compound 0.949 µM) 16.2% | viability, T/C (second compound 1 µM, first compound 0.00949 µM) 120% | viability, T/C (second compound 1 µM, first compound 0.03 µM) 105% | viability, T/C (second compound 1 µM, first compound 0.0949 µM) 60.6% | viability, T/C (second compound 1 µM, first compound 0.3 µM) 31.1% | viability, T/C (second compound 1 µM, first compound 0.949 µM) 16.7% | viability, T/C (second compound 3.16 µM, first compound 0.00949 µM) 100% | viability, T/C (second compound 3.16 µM, first compound 0.03 µM) 86.6% | viability, T/C (second compound 3.16 µM, first compound 0.0949 µM) 63.2% | viability, T/C (second compound 3.16 µM, first compound 0.3 µM) 31.6% | viability, T/C (second compound 3.16 µM, first compound 0.949 µM) 16.8% | viability, T/C (second compound 10 µM, first compound 0.00949 µM) 84% | viability, T/C (second compound 10 µM, first compound 0.03 µM) 78.7% | viability, T/C (second compound 10 µM, first compound 0.0949 µM) 48.2% | viability, T/C (second compound 10 µM, first compound 0.3 µM) 21.1% | viability, T/C (second compound 10 µM, first compound 0.949 µM) 12.8%
0.153 µM: IC50 [4]
0.0931 µM: IC50 [5]
0.158 µM: IC50 [1]
active: viability, T/C (second compound 0.316 µM, first compound 3 µM) 7.17% | viability, T/C (second compound 1 µM, first compound 3 µM) 6.44% | viability, T/C (second compound 3.16 µM, first compound 3 µM) 7.23% | viability, T/C (second compound 10 µM, first compound 3 µM) 6.35%
0.165 µM: IC50 [2]
0.151 µM: IC50 [3]

CC(C)CC(NC(=O)C(Cc1ccccc1)NC(=O)c1cnccn1)B(O)O (stereo unspecified)
active: viability, T/C (compound 0.00316 µM) 2.61% and 0.22% | viability, T/C (compound 0.01 µM) 4.07% and 0.18% | viability, T/C (compound 0.0316 µM) 0.12% and 0.1% | viability, T/C (compound 0.1 µM) 3.52% and 0.14%
0.000879 µM and < 0.000316 µM: IC50 (curve of compound)
inactive: viability, T/C (compound 0.000316 µM) 99.8% and 17.9%

O=C(C=Cn1cnc(-c2cc(C(F)(F)F)cc(C(F)(F)F)c2)n1)NNc1cnccn1 + NC1CCC(NC2CC2c2ccccc2)CC1
active: viability, T/C (second compound 0.1 µM, first compound 0.01 µM) 7.13% | viability, T/C (second compound 0.1 µM, first compound 0.0316 µM) 7% | viability, T/C (second compound 0.1 µM, first compound 0.1 µM) 5.05% | viability, T/C (second compound 0.1 µM, first compound 0.316 µM) 5.84% | viability, T/C (second compound 0.1 µM, first compound 1 µM) 8.68% | viability, T/C (second compound 0.316 µM, first compound 0.01 µM) 6.98% | viability, T/C (second compound 0.316 µM, first compound 0.0316 µM) 4.07% | viability, T/C (second compound 0.316 µM, first compound 0.1 µM) 1.21% | viability, T/C (second compound 0.316 µM, first compound 0.316 µM) 8.2% | viability, T/C (second compound 0.316 µM, first compound 1 µM) 6.75% | viability, T/C (second compound 1 µM, first compound 0.01 µM) 6.6% | viability, T/C (second compound 1 µM, first compound 0.0316 µM) 1.46% | viability, T/C (second compound 1 µM, first compound 0.1 µM) 1.03% | viability, T/C (second compound 1 µM, first compound 0.316 µM) 3.55% | viability, T/C (second compound 1 µM, first compound 1 µM) 0.74% | viability, T/C (second compound 3.16 µM, first compound 0.01 µM) 6.99% | viability, T/C (second compound 3.16 µM, first compound 0.0316 µM) 1.67% | viability, T/C (second compound 3.16 µM, first compound 0.1 µM) 0.99% | viability, T/C (second compound 3.16 µM, first compound 0.316 µM) 0.76% | viability, T/C (second compound 3.16 µM, first compound 1 µM) 3.58% | viability, T/C (second compound 10 µM, first compound 0.01 µM) 7.4% | viability, T/C (second compound 10 µM, first compound 0.0316 µM) 1.17% | viability, T/C (second compound 10 µM, first compound 0.1 µM) 0.87% | viability, T/C (second compound 10 µM, first compound 0.316 µM) 2.75% | viability, T/C (second compound 10 µM, first compound 1 µM) 0.69%
inactive: viability, T/C (second compound 0.1 µM, first compound 0.00316 µM) 34% | viability, T/C (second compound 0.316 µM, first compound 0.00316 µM) 36.5% | viability, T/C (second compound 1 µM, first compound 0.00316 µM) 47.5% | viability, T/C (second compound 3.16 µM, first compound 0.00316 µM) 26.8% | viability, T/C (second compound 10 µM, first compound 0.00316 µM) 26.8%
< 0.00316 µM: IC50 [1] | IC50 [2] | IC50 [3] | IC50 [4] | IC50 [5]
